Read-outs that look alike come from different tables or passages of the source. Numbered stars: 1 amine (or outer) side, 2 acyl side, 3 side chain; on linkers, the order of the positions; unused ones are H or OH. Bridge positions count the residues as written; N and C are the ends. Square brackets hold non-standard residues; d marks the D form. Peptide text beside a SMILES is read from it. I, II: the chains in the order shown. Phe(4-COOH) = N[C@@H](Cc1ccc(C(=O)O)cc1)C(=O)O; Phe(4-tBu) = CC(C)(C)c1ccc(C[C@H](N)C(=O)O)cc1; Diglycolyl = O=C(COCC(=O)[*:2])[*:1]; NMeR = CN[C@@H](CCCNC(=N)N)C(=O)O; β3hE = N[C@@H](CCC(=O)O)CC(=O)O; NMeK = CN[C@@H](CCCCN)C(=O)O; Pen = CC(C)(S)[C@H](N)C(=O)O
Legend:
[1] = Simulated Intestinal Fluid (SIF) Stability Assay; assay type: in vitro ADME, porcine; conditions: for half-life at 22 μM: pig, pH 6.5, Table 3-B
Outline: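 Intestinal stability: percent peptide remaining over time, by LC-MS/MS peak-area ratio to internal standard, fitted to first-order decay for half-life. Conditions: 22 μM peptide, 1% pancreatin in pH 6.5 blank FASSIF, 37 °C.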

rh integrin α4β7 = molecular target: T1, rh integrin α4β7 (Homo sapiens, UniProt P13612+P26010); test: α4β7-MAdCAM Competition ELISA; assay type: binding; conditions: Table 3-B, Potency (α4β7); range classes; read-out: α4β7 ELISA IC50
T1 construct: purchased R&D Systems 5397-A30
Outline: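 Competition read-out was A450 after anti-human IgG1-HRP and TMB detection of bound recombinant human MAdCAM-1 (10 nM final). Peptides were serially diluted 3-fold from a final 10 μM and equilibrated 1 h at room temperature on nickel-captured α4β7 (800 ng/well). The buffer was Tris pH 7.6 with 1 mM Mn2+ or Mg2+.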

α4β7 = α4β7 (Homo sapiens, UniProt P13612+P26010); test: α4β7-MAdCAM Cell Adhesion Assay (RPMI 8866 human cells); assay type: cell-based; set-up: host or cells: RPMI 8866 human B lymphoblastoid cells; conditions: Table 3-B, Potency (α4β7); range classes; read-out: α4β7 cell (Hu) IC50
Outline: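 Adhesion read-out: MTT absorbance at 570 nm minus no-cell wells, after three washes. Plates coated with rh MAdCAM-1/Fc received peptide dilutions plus 200,000 RPMI 8866 cells in Mn2+ (1 mM)-supplemented DMEM, 0.1% BSA, HEPES pH 7, incubated 30-45 min, 37 °C.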

[2] = simulated intestinal fluid (SIF) with 1% porcine pancreatin, > means experiment was stopped at that time and half life was not reached, read-out: Stabilty SIF t1/2
[3] = simulated intestinal fluid (SIF) with 1% porcine pancreatin, alone or in parentheses after >360, read-out: Stabilty SIF t1/2, in hr (converted)

α4β7, sequence (P13612 34-1032): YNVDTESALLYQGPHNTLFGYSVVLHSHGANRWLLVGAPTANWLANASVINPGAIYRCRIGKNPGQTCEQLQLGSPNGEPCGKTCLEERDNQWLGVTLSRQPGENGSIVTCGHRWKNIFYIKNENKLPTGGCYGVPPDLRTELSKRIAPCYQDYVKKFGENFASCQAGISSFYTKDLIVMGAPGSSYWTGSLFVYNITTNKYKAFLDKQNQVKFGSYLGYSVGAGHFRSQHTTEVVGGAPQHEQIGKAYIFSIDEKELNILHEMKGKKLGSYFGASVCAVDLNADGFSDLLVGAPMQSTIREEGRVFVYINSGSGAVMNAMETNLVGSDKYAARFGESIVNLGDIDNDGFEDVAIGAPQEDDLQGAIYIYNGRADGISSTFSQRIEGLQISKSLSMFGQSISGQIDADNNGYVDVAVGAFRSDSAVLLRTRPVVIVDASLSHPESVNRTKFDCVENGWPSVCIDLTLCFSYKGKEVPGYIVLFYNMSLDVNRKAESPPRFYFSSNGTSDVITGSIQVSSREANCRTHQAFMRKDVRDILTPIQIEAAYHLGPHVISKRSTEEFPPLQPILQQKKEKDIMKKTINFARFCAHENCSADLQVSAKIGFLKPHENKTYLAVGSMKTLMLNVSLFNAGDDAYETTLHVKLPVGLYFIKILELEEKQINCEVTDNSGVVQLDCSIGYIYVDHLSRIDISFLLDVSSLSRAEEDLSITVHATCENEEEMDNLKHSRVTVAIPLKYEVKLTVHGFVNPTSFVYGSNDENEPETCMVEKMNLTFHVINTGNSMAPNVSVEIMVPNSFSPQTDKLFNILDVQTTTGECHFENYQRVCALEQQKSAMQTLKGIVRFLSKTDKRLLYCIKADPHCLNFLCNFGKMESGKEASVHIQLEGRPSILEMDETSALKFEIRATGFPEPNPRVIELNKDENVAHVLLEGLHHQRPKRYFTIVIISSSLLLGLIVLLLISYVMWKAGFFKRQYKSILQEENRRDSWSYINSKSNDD
α4β7, sequence (P26010 20-798): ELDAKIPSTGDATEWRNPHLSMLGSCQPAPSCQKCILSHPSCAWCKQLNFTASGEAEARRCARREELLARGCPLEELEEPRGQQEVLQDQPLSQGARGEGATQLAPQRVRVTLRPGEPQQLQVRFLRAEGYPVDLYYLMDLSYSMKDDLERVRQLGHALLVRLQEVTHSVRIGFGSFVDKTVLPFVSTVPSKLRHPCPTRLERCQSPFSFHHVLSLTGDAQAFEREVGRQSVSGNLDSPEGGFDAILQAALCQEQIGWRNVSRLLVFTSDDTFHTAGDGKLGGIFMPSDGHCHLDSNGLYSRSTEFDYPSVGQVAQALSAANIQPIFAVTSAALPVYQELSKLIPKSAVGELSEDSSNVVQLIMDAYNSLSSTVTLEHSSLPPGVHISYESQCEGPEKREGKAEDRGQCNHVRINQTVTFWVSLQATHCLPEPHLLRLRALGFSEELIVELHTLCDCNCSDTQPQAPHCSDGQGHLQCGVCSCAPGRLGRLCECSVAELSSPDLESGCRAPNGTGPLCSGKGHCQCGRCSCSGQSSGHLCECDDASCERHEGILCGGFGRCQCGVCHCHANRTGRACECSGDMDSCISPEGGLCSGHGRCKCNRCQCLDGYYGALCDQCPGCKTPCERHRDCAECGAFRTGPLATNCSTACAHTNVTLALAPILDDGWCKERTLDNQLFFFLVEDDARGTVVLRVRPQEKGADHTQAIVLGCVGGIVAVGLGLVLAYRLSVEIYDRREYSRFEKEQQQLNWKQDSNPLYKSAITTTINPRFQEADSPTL
T1 sequence (P13612 34-977 limits assumed): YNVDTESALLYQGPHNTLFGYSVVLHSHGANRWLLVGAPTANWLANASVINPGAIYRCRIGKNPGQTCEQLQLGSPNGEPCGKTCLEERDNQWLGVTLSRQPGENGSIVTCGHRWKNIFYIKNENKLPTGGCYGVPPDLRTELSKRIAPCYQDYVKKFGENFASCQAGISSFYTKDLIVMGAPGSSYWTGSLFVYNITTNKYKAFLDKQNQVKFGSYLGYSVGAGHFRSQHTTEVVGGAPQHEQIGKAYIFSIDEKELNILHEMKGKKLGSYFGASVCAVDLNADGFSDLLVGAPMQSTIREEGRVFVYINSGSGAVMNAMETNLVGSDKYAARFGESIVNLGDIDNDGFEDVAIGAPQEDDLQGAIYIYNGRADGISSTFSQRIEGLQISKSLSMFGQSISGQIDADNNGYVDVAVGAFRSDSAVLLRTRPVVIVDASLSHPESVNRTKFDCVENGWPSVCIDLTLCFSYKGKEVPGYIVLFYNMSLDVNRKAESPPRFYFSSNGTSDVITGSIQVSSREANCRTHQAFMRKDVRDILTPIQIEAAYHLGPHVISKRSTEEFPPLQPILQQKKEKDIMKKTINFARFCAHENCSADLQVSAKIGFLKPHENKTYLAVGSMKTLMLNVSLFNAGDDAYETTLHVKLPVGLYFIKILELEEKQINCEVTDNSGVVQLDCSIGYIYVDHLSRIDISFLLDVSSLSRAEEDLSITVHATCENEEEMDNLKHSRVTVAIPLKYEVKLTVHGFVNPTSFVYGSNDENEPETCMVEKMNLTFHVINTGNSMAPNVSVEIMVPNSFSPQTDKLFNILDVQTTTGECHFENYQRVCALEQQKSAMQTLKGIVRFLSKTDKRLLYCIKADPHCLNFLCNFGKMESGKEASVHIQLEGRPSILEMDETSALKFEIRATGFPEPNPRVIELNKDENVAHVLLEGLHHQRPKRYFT
T1 sequence (P26010 20-723 limits assumed): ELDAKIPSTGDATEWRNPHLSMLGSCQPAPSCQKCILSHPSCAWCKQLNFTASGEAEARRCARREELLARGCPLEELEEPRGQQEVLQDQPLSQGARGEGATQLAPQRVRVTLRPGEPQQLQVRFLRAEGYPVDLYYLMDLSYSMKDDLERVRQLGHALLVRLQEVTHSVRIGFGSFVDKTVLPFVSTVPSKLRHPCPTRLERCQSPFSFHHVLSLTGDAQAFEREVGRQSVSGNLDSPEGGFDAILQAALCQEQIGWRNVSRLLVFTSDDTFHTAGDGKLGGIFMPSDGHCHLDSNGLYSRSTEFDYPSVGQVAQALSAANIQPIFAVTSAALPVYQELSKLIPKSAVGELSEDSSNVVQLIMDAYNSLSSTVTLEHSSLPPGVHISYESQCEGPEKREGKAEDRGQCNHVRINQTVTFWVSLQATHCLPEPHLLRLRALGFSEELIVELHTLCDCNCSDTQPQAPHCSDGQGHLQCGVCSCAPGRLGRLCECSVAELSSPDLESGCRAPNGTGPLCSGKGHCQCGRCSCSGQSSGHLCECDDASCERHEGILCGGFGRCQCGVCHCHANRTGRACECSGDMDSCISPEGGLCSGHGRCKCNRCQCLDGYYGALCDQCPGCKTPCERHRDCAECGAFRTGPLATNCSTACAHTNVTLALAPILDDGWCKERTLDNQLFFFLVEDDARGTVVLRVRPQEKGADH

`CC(=O)N[C@@H]1C(=O)N(C)[C@@H](CCCNC(=N)N)C(=O)N[C@@H](CO)C(=O)N[C@@H](CC(=O)O)C(=O)N[C@@H]([C@@H](C)O)C(=O)N[C@@H](CC(C)C)C(=O)N[C@H](C(=O)N[C@@H](Cc2ccc(C(=O)O)cc2)C(=O)N[C@@H](CCC(=O)O)C(=O)N[C@H](CCCCNC(=O)COCC(=O)NCCCC[C@@H](NC(=O)[C@H](CCC(=O)O)NC(=O)[C@H](Cc2ccc(C(=O)O)cc2)NC(=O)[C@H]2NC(=O)[C@H](CC(C)C)NC(=O)[C@H]([C@@H](C)O)NC(=O)[C@H](CC(=O)O)NC(=O)[C@H](CO)NC(=O)[C@H](CCCNC(=N)N)N(C)C(=O)[C@@H](NC(C)=O)C(C)(C)SSC2(C)C)C(N)=O)C(N)=O)C(C)(C)SSC1(C)C` [compound 129] (I: Ac-[Pen][NMeR]SDTL[Pen][Phe(4-COOH)]E[dK]-NH2 / II: Ac-[Pen][NMeR]SDTL[Pen][Phe(4-COOH)]E[dK]-NH2; disulfide I:1-I:7, II:1-II:7; linker I:10-II:10 via Diglycolyl) showed a half-life at 22 μM [1, 2] of over 6 h, a half-life at 22 μM [1, 3] of 13 h and an IC50 (rh integrin α4β7) of under 10 nM. The IC50 (α4β7) was under 10 nM.

For `CC(=O)N[C@@H]1C(=O)N(C)[C@@H](CCCNC(=N)N)C(=O)N[C@@H](CO)C(=O)N[C@@H](CC(=O)O)C(=O)N[C@@H]([C@@H](C)O)C(=O)N[C@@H](CC(C)C)C(=O)N[C@H](C(=O)N[C@@H](Cc2ccc(C(=O)O)cc2)C(=O)N[C@@H](CCC(=O)O)CC(=O)N[C@H](CCCCNC(=O)COCC(=O)NCCCC[C@@H](NC(=O)C[C@H](CCC(=O)O)NC(=O)[C@H](Cc2ccc(C(=O)O)cc2)NC(=O)[C@H]2NC(=O)[C@H](CC(C)C)NC(=O)[C@H]([C@@H](C)O)NC(=O)[C@H](CC(=O)O)NC(=O)[C@H](CO)NC(=O)[C@H](CCCNC(=N)N)N(C)C(=O)[C@@H](NC(C)=O)C(C)(C)SSC2(C)C)C(N)=O)C(N)=O)C(C)(C)SSC1(C)C` [compound 130] (I: Ac-[Pen][NMeR]SDTL[Pen][Phe(4-COOH)][β3hE][dK]-NH2 / II: Ac-[Pen][NMeR]SDTL[Pen][Phe(4-COOH)][β3hE][dK]-NH2; disulfide I:1-I:7, II:1-II:7; linker I:10-II:10 via Diglycolyl), the half-life at 22 μM [1, 2] was over 6 h, the half-life at 22 μM [1, 3] was 16 h and the IC50 (rh integrin α4β7) was under 10 nM. For the same molecule, the IC50 (α4β7) was under 10 nM.

For `CC(=O)N[C@@H]1C(=O)N(C)[C@@H](CCCNC(=N)N)C(=O)N[C@@H](CO)C(=O)N[C@@H](CC(=O)O)C(=O)N[C@@H]([C@@H](C)O)C(=O)N[C@@H](CC(C)C)C(=O)N[C@H](C(=O)N[C@@H](Cc2ccc(C(C)(C)C)cc2)C(=O)N[C@@H](CCC(=O)O)CC(=O)N[C@H](CCCCNC(=O)COCC(=O)NCCCC[C@@H](NC(=O)C[C@H](CCC(=O)O)NC(=O)[C@H](Cc2ccc(C(C)(C)C)cc2)NC(=O)[C@H]2NC(=O)[C@H](CC(C)C)NC(=O)[C@H]([C@@H](C)O)NC(=O)[C@H](CC(=O)O)NC(=O)[C@H](CO)NC(=O)[C@H](CCCNC(=N)N)N(C)C(=O)[C@@H](NC(C)=O)C(C)(C)SSC2(C)C)C(N)=O)C(N)=O)C(C)(C)SSC1(C)C` [compound 132] (I: Ac-[Pen][NMeR]SDTL[Pen][Phe(4-tBu)][β3hE][dK]-NH2 / II: Ac-[Pen][NMeR]SDTL[Pen][Phe(4-tBu)][β3hE][dK]-NH2; disulfide I:1-I:7, II:1-II:7; linker I:10-II:10 via Diglycolyl), the “Stabilty SIF t1/2, in hr” value ([1]; Table 3-B, alone or in parentheses after >360) was 11 h, the half-life at 22 μM ([1]; simulated intestinal fluid (SIF) with porcine pancreatin, > means experiment was stopped at that time and half life was not reached, read-out: Stabilty SIF t1/2) was over 6 h and the half-life at 22 μM ([1]; simulated intestinal fluid (SIF) with porcine pancreatin, alone or in parentheses after >360, read-out: Stabilty SIF t1/2, in hr (converted)) was 10.7 h. It also gave an IC50 (rh integrin α4β7) of under 10 nM and an IC50 (α4β7) of under 10 nM.

Work on `CC(=O)N[C@@H]1C(=O)N(C)[C@@H](CCCNC(=N)N)C(=O)N[C@@H](CO)C(=O)N[C@@H](CC(=O)O)C(=O)N[C@@H]([C@@H](C)O)C(=O)N[C@@H](CC(C)C)C(=O)N[C@H](C(=O)N[C@@H](Cc2ccc(C(=O)O)cc2)C(=O)N[C@@H](CCC(=O)O)C(=O)N(C)[C@@H](CCCCNC(=O)COCC(=O)NCCCC[C@@H](C(N)=O)N(C)C(=O)[C@H](CCC(=O)O)NC(=O)[C@H](Cc2ccc(C(=O)O)cc2)NC(=O)[C@H]2NC(=O)[C@H](CC(C)C)NC(=O)[C@H]([C@@H](C)O)NC(=O)[C@H](CC(=O)O)NC(=O)[C@H](CO)NC(=O)[C@H](CCCNC(=N)N)N(C)C(=O)[C@@H](NC(C)=O)C(C)(C)SSC2(C)C)C(N)=O)C(C)(C)SSC1(C)C` [compound 147] (I: Ac-[Pen][NMeR]SDTL[Pen][Phe(4-COOH)]E[NMeK]-NH2 / II: Ac-[Pen][NMeR]SDTL[Pen][Phe(4-COOH)]E[NMeK]-NH2; disulfide I:1-I:7, II:1-II:7; linker I:10-II:10 via Diglycolyl) yielded a half-life at 22 μM [1, 2] of over 5 h, an IC50 (rh integrin α4β7) of under 10 nM and an IC50 (α4β7) of under 10 nM.

`CC(=O)N[C@@H]1C(=O)N(C)[C@@H](CCCNC(=N)N)C(=O)N[C@@H](CO)C(=O)N[C@@H](CC(=O)O)C(=O)N[C@@H]([C@@H](C)O)C(=O)N[C@@H](CC(C)C)C(=O)N[C@H](C(=O)N[C@@H](Cc2ccc(C(=O)O)cc2)C(=O)N[C@@H](CCC(=O)O)CC(=O)N(C)[C@@H](CCCCNC(=O)COCC(=O)NCCCC[C@@H](C(N)=O)N(C)C(=O)C[C@H](CCC(=O)O)NC(=O)[C@H](Cc2ccc(C(=O)O)cc2)NC(=O)[C@H]2NC(=O)[C@H](CC(C)C)NC(=O)[C@H]([C@@H](C)O)NC(=O)[C@H](CC(=O)O)NC(=O)[C@H](CO)NC(=O)[C@H](CCCNC(=N)N)N(C)C(=O)[C@@H](NC(C)=O)C(C)(C)SSC2(C)C)C(N)=O)C(C)(C)SSC1(C)C` [compound 148] (I: Ac-[Pen][NMeR]SDTL[Pen][Phe(4-COOH)][β3hE][NMeK]-NH2 / II: Ac-[Pen][NMeR]SDTL[Pen][Phe(4-COOH)][β3hE][NMeK]-NH2; disulfide I:1-I:7, II:1-II:7; linker I:10-II:10 via Diglycolyl) gave a half-life at 22 μM [1, 2] of over 5 h, an IC50 (rh integrin α4β7) of under 10 nM and an IC50 (α4β7) of under 10 nM.

For `CC(=O)N[C@@H]1C(=O)N(C)[C@@H](CCCNC(=N)N)C(=O)N[C@@H](CO)C(=O)N[C@@H](CC(=O)O)C(=O)N[C@@H]([C@@H](C)O)C(=O)N[C@@H](CC(C)C)C(=O)N[C@H](C(=O)N[C@@H](Cc2ccc(C(C)(C)C)cc2)C(=O)N[C@@H](CCC(=O)O)CC(=O)N(C)[C@@H](CCCCNC(=O)COCC(=O)NCCCC[C@@H](C(N)=O)N(C)C(=O)C[C@H](CCC(=O)O)NC(=O)[C@H](Cc2ccc(C(C)(C)C)cc2)NC(=O)[C@H]2NC(=O)[C@H](CC(C)C)NC(=O)[C@H]([C@@H](C)O)NC(=O)[C@H](CC(=O)O)NC(=O)[C@H](CO)NC(=O)[C@H](CCCNC(=N)N)N(C)C(=O)[C@@H](NC(C)=O)C(C)(C)SSC2(C)C)C(N)=O)C(C)(C)SSC1(C)C` [compound 149] (I: Ac-[Pen][NMeR]SDTL[Pen][Phe(4-tBu)][β3hE][NMeK]-NH2 / II: Ac-[Pen][NMeR]SDTL[Pen][Phe(4-tBu)][β3hE][NMeK]-NH2; disulfide I:1-I:7, II:1-II:7; linker I:10-II:10 via Diglycolyl), the half-life at 22 μM [1, 2] was over 5 h, the IC50 (rh integrin α4β7) was under 10 nM and the IC50 (α4β7) was under 10 nM.
